From ChEMBL document CHEMBL1123919, “Molecular modification of anticholinergics as probes for muscarinic receptors. 3. Conformationally restricted analogues of benactyzine” (J Med Chem, 1987) come the findings set out here.

One test is filed under the species Rattus norvegicus. Description: Antimuscarinic potency is measured as its ability to block ACh-induced contractions of the rat ileum. In kind it is functional. Conditions: read-out: pA2 (converted).
The target of test [1] is Muscarinic acetylcholine receptor. Description: Compound was evaluated for the inhibition of binding of [3H]QNB (quinuclidinyl benzilate) to striatal Muscarinic acetylcholine receptor. In kind it is protein assay.

For `CCN(CC)CC[C@H]1COC(c2ccccc2)(c2ccccc2)[C@@H]1O`, in the test listed under Rattus norvegicus, the Kb is 20000 nM.
As for `CCN(CC)CC[C@@H]1COC(c2ccccc2)(c2ccccc2)[C@@H]1O`, the Kb in the test filed under Rattus norvegicus was 646 nM.
Usually IC50 stands for the point on the concentration scale where inhibition reaches its midpoint. A lower IC50 goes with greater potency. In test [1], `CCN(CC)CCC1COC(c2ccccc2)(c2ccccc2)C1=O.Cl` (stereo not given) showed an IC50 of 2000 nM. Moreover, the Kb in the test filed under Rattus norvegicus is 447 nM.
The compound `CCN(CC)C[C@H]1C[C@@H]2COC(c3ccccc3)(c3ccccc3)[C@@H]2O1.Cl` had a half-maximal inhibitory concentration (IC50) in test [1] of 19000 nM. That is a double-digit micromolar value.
